Data from patent publication US8269043B2, “Bicyclic aryl sphingosine 1-phosphate analogs” (Biogen Idec MA Inc., priority 2008, dated 2012).

The compounds below were run on circulating lymphocytes (assay: Lymphopenia assay: circulating lymphocytes after oral gavage). Settings: Mus musculus, Lymphocyte, po, C57bl/6 male mice, oral gavage 0.5 and 5 mg/kg in 30% HPCD, blood 5 and 24 hours after administration.
Type: in vivo
Experimental: Measurement of circulating lymphocytes: Compounds were dissolved in 30% HPCD. Mice (C57bl/6 male, 6-10 week-old) were administered 0.5 and 5 mg/kg of a compound via oral gavage. 30% HPCD was included as a negative control.
Blood was collected from the retro-orbital sinus 5 and 24 hours after drug administration under short isoflurane anesthesia. Whole blood samples were subjected to hematology analysis. Peripheral lymphocyte counts were determined using an automated analyzer (HEMAVET™ 3700). Three mice were used to assess the lymphocyte depletion activity of each compound screened.
Compounds of formula (I) induced full lymphopenia at times as short as 3 hours or less to as long as 48 hours or more; for example, 4 to 36 hours, or 5 to 24 hours. In some cases, a compound of formula induced full lymphopenia at 5 hours and partial lymphopenia at 24 hours. The dosage required to induce lymphopenia can be in the range of, e.g., 0.001 mg/kg to 100 mg/kg; or 0.01 mg/kg to 10 mg/kg. The dosage can be 10 mg/kg or less, such as 5 mg/kg or less, 1 mg/kg or less, or 0.1 mg/kg or less
`CC(C)(C)[C@H]1CC[C@H](Oc2ccc3cc([C@]4(C)COC(=O)N4)ccc3c2C(F)(F)F)CC1` [Example 131, (R)-4-(6-(trans-4-tert-butylcyclohexyloxy)-5-(trifluoromethyl)naphthalen-2-yl)-4-methyloxazolidin-2-one] gave an ED50 of less than 0.5 mg/kg. `C[C@](N)(CO)c1ccc2cc(OC3CCC4(CCCCC4)CC3)ccc2c1` [Example 133, (2R)-2-amino-2-(6-(spiro[5.5]undecan-3-yloxy)naphthalen-2-yl)propan-1-ol] showed an ED50 of 0.5 to 5 mg/kg. Work on `C[C@](N)(CO)c1ccc2c(C(F)(F)F)c(OC3CCC4(CCCCC4)CC3)ccc2c1` [Example 139, (2R)-2-amino-2-(6-(spiro[5.5]undecan-3-yloxy)-5-(trifluoromethyl)naphthalen-2-yl)propan-1-ol] yielded an ED50 of less than 0.5 mg/kg. Work on `CC(C)(C)C1CCC(Cc2ccc3cc([C@@](C)(N)CO)ccc3c2)CC1` (stereo partly drawn) [Example 146, (R)-2-amino-2-(6-((4-tert-butylcyclohexyl)methyl)naphthalen-2-yl)propan-1-ol] yielded an ED50 of 0.5 to 5 mg/kg. `CC(C)(C)[C@H]1CC[C@H](Oc2ccc3cc(C4(N)COC4)ccc3c2)CC1` [Example 151, 3-(6-(trans-4-tert-Butylcyclohexyloxy)naphthalen-2-yl)oxetan-3-amine] gave an ED50 of 0.5 to 5 mg/kg. Work on `CC(C)(C)[C@H]1CC[C@H](Oc2ccc3cc(C4(N)COC4)ccc3c2C(F)(F)F)CC1` [Example 153, 3-(6-(trans-4-tert-butylcyclohexyloxy)-5-(trifluoromethyl)naphthalen-2-yl)oxetan-3-amine] yielded an ED50 of less than 0.5 mg/kg. `C[C@](N)(CO)c1ccc2c(C(F)(F)F)c(O[C@H]3CC[C@@H](C4CCCCC4)CC3)ccc2c1` [Example 160, (R)-2-Amino-2-(6-(cis-4-cyclohexylcyclohexyloxy)-5-(trifluoromethyl)naphthalen-2-yl)propan-1-ol] gave an ED50 greater than 5 mg/kg. For `C[C@](N)(CO)c1ccc2c(C(F)(F)F)c(O[C@H]3CC[C@H](C4CCCCC4)CC3)ccc2c1` [Example 163, (R)-2-Amino-2-(6-(trans-4-cyclohexylcyclohexyloxy)-5-(trifluoromethyl)naphthalen-2-yl)propan-1-ol], the ED50 was less than 0.5 mg/kg. `CC(C)[C@H]1CC[C@@H](Oc2ccc3cc([C@@](C)(N)CO)ccc3c2C(F)(F)F)CC1` [Example 167, (R)-2-Amino-2-(6-(cis-4-isopropylcyclohexyloxy)-5-(trifluoromethyl)naphthalen-2-yl)propan-1-ol] was tested, and the ED50 was less than 0.5 mg/kg. For `CC(C)[C@H]1CC[C@H](Oc2ccc3cc([C@@](C)(N)CO)ccc3c2C(F)(F)F)CC1` [Example 168, (R)-2-Amino-2-(6-(trans-4-isopropylcyclohexyloxy)-5-(trifluoromethyl)naphthalen-2-yl)propan-1-ol], the ED50 was less than 0.5 mg/kg. Compound `C[C@](N)(CO)c1ccc2cc(Oc3cccc(Cl)c3)ccc2c1` [Example 172, (R)-2-Amino-2-(6-(3-chlorophenoxy)naphthalen-2-yl)propan-1-ol] has an ED50 of 0.5 to 5 mg/kg. `C[C@](N)(CO)c1ccc2cc(Oc3ccc(Cl)cc3)ccc2c1` [Example 173, (R)-2-Amino-2-(6-(4-chlorophenoxy)naphthalen-2-yl)propan-1-ol] showed an ED50 of 0.5 to 5 mg/kg. With `C[C@](N)(CO)c1ccc2cc(Oc3cccc(Br)c3)ccc2c1` [Example 174, (R)-2-Amino-2-(6-(3-bromophenoxy)naphthalen-2-yl)propan-1-ol] the ED50 was greater than 5 mg/kg. Compound `C[C@](N)(CO)c1ccc2cc(Oc3cccc(OC(F)(F)F)c3)ccc2c1` [Example 175, (R)-2-Amino-2-(6-(3-(trifluoromethoxy)phenoxy)naphthalen-2-yl)propan-1-ol] has an ED50 of 0.5 to 5 mg/kg. `CCc1ccc(Oc2ccc3cc([C@@](C)(N)CO)ccc3c2)cc1` [Example 176, (R)-2-Amino-2-(6-(4-ethylphenoxy)naphthalen-2-yl)propan-1-ol] was tested, and the ED50 was 0.5 to 5 mg/kg. For `CC(C)c1cccc(Oc2ccc3cc([C@@](C)(N)CO)ccc3c2)c1` [Example 177, (R)-2-Amino-2-(6-(3-isopropylphenoxy)naphthalen-2-yl)propan-1-ol], the ED50 was greater than 5 mg/kg. Compound `CC(C)Cc1ccc(Oc2ccc3cc([C@@](C)(N)CO)ccc3c2)cc1` [Example 178, (R)-2-Amino-2-(6-(4-isobutylphenoxy)naphthalen-2-yl)propan-1-ol] has an ED50 of less than 0.5 mg/kg. Compound `CC(C)(C)c1ccc(Oc2ccc3cc([C@@](C)(N)CO)ccc3c2)cc1` [Example 179, (R)-2-Amino-2-(6-(4-tert-butylphenoxy)naphthalen-2-yl)propan-1-ol] has an ED50 of 0.5 to 5 mg/kg. In the case of `Cc1ccc(Oc2ccc3cc([C@@](C)(N)CO)ccc3c2)cc1` [Example 180, (R)-2-Amino-2-(6-(p-tolyloxy)naphthalen-2-yl)propan-1-ol], the ED50 is reported as 0.5 to 5 mg/kg. `C[C@](N)(CO)c1ccc2cc(Oc3ccc(C(F)(F)F)cc3)ccc2c1` [Example 181, (R)-2-Amino-2-(6-(4-(trifluoromethyl)phenoxy)naphthalen-2-yl)propan-1-ol] showed an ED50 greater than 5 mg/kg. For `CCc1ccccc1Oc1ccc2cc([C@@](C)(N)CO)ccc2c1` [Example 182, (R)-2-Amino-2-(6-(2-ethylphenoxy)naphthalen-2-yl)propan-1-ol], the ED50 was 0.5 to 5 mg/kg. `C[C@](N)(CO)c1ccc2cc(Oc3ccc(F)c(F)c3)ccc2c1` [Example 183, (R)-2-Amino-2-(6-(3,4-difluorophenoxy)naphthalen-2-yl)propan-1-ol] showed an ED50 of 0.5 to 5 mg/kg. `Cc1ccc(Oc2ccc3cc([C@@](C)(N)CO)ccc3c2)cc1C` [Example 184, (R)-2-Amino-2-(6-(3,4-dimethylphenoxy)naphthalen-2-yl)propan-1-ol] was tested, and the ED50 was greater than 5 mg/kg. `C[C@](N)(CO)c1ccc2cc(Oc3ccc(F)c(Cl)c3)ccc2c1` [Example 185, (R)-2-Amino-2-(6-(3-chloro-4-fluorophenoxy)naphthalen-2-yl)propan-1-ol] showed an ED50 of 0.5 to 5 mg/kg. With `C[C@](N)(CO)c1ccc2cc(Oc3cc(F)cc(F)c3)ccc2c1` [Example 186, (R)-2-Amino-2-(6-(3,5-difluorophenoxy)naphthalen-2-yl)propan-1-ol] the ED50 was 0.5 to 5 mg/kg. Compound `Cc1cc(C)cc(Oc2ccc3cc([C@@](C)(N)CO)ccc3c2)c1` [Example 187, (R)-2-Amino-2-(6-(3,5-dimethylphenoxy)naphthalen-2-yl)propan-1-ol] has an ED50 of 0.5 to 5 mg/kg. `CC(C)Oc1ccc(Oc2ccc3cc([C@@](C)(N)CO)ccc3c2)cc1` [Example 189, (R)-2-Amino-2-[6-(4-isopropoxy-phenoxy)-naphthalen-2-yl]-propan-1-ol] showed an ED50 of less than 0.5 mg/kg. For `NC(CO)(CO)c1ccc2cc(Oc3cccc(C(F)(F)F)c3)ccc2c1` [Example 191, 2-Amino-2-(6-(3-(trifluoromethyl)phenoxy)naphthalen-2-yl)propane-1,3-diol], the ED50 was greater than 5 mg/kg. For `NC(CO)(CO)c1ccc2cc(Sc3cccc(OCc4ccccc4)c3)ccc2c1` [Example 192, 2-Amino-2-(6-(3-(benzyloxy)phenylthio)naphthalen-2-yl)propane-1,3-diol], the ED50 was less than 0.5 mg/kg. For `NC(CO)(CO)c1ccc2cc(Oc3cccc(OCc4ccccc4)c3)ccc2c1` [Example 194, 2-Amino-2-(6-(3-(benzyloxy)phenoxy)naphthalen-2-yl)propane-1,3-diol], the ED50 was less than 0.5 mg/kg. Compound `CCCCCOc1cccc(Oc2ccc3cc(C(N)(CO)CO)ccc3c2)c1` [Example 196, 2-Amino-2-(6-(3-(pentyloxy)phenoxy)naphthalen-2-yl)propane-1,3-diol] has an ED50 of less than 0.5 mg/kg. Compound `NC(CO)(CO)c1ccc2cc(Oc3cccc(OCCc4ccccc4)c3)ccc2c1` [Example 197, 2-Amino-2-(6-(3-phenethoxyphenoxy)naphthalen-2-yl)propane-1,3-diol] has an ED50 of less than 0.5 mg/kg.
